{"source": "patent US20240352121A1", "about": "“LAIR-1 AGONISTIC ANTIBODIES AND METHODS OF USE THEREOF” (NEXTCURE, INC., priority 2023, published 2024)", "test_system": "SHP-1", "assay": "SHP-1 phosphorylation in primary patient AML blasts (Western blot)", "format": "cell-based, human", "details": "collagen alone", "experimental": "FIGS. 4A-4O show the collagen matrix is vital to LAIR-1 induced AML cell death. (FIGS. 4A-C). Flow cytometry quantification of primary live, dead, or apoptotic total blood leukocytes after ex vivo treatment with 10 μg/mL IgG isotype control (gray) or LAIR-1 mAb (red) in the presence (FIG. 4A) or absence (FIG. 4B) of exogenous collagen, or (FIG. 4C), CD451^Lo SSC^Lo blast cells in the presence of isotype control or LAIR-1 mAb. N=3 technical replicates. […] Each dot represents an individual donor. Red shading highlights surface expression >20000 arbitrary units. Blue shading highlights expression <20000 units. Line represents simple linear regression. […] N=4-7 donors. […] Mean pixel density from Western blotting normalized to isotype control condition and graphed relative to total SHP-1. N=3 technical replicates. […] FIGS. 4M and 4N) 4E-BP1 expression as measured by Lumit assay (FIG. 4M) or cleaved caspase-7 as measured by Western blot (FIG. 4N) of cells treated as shown in FIGS. 4I-4K. […] P values calculated by Student's t test. […]\nFor assessment of signaling in healthy cells, human monocytes were isolated from PBMCs from two donors using a StemCell monocyte isolation kit (StemCell, Vancouver, BC). […] Data were quantified using FIJI (NIH, MD).", "data": [{"substance": "collagen: plate-coated human Collagen I, LAIR-1 ligand, mimics an extracellular matrix [reference compound]", "values": [{"measurement": "pSHP-1 relative to control", "value": "limited increase"}]}]}
